The record followed here is the METLIN SMRT retention time set (Domingo-Almenara et al. 2019).

Structures are written as SMILES.

This data set is described as follows: gradient 5% acetonitrile 3 min, to 50% in 2 min, to 85% in 15 min, held 3 min, 100 µL/min. The following applies: column: Zorbax Extend-C18 2.1 x 50 mm; eluents: water / acetonitrile, 0.1% formic acid. The gist of the method: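 Over 3 months, pure standards in mixtures of ~100 molecules were run by HPLC coupled to a quadrupole time-of-flight mass spectrometer in positive and negative ionization mode. The column was a Zorbax Extend-C18 (2.1 × 50 mm, 1.8 μm) at 100 μL/min, eluted with water and acetonitrile each holding 0.1% formic acid, with 40 μL dead and 900 μL dwell volumes. Retention time was determined from adduct peaks chosen by software and checked manually.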
Consider `NS(=O)(=O)c1ccc(CNC(=O)C2CCN(C(=O)NCc3cccs3)CC2)cc1`, for which the RP-LC retention time was determined as 612 s.
The value for `CCN1CCN(c2ncc3c(n2)CC(C)CC3=O)CC1` (centres undefined) was 575 s; that for `Cc1nc(-c2cc(S(=O)(=O)Nc3cccc(F)c3)c(C)s2)sc1C` was 1060 s.
Consider `CC1Oc2ccccc2OC1C(=O)Nc1cccc(C(F)(F)F)c1` (centres undefined), for which the RP-LC retention time was 1050 s.
With `CCOC(=O)c1[nH]c(C)c(CCC(=O)N2CCC(C(=O)NCc3ccc4c(c3)OCO4)CC2)c1C` the figure was 764 s; with `O=C(c1nnc(-c2ccc(S(=O)(=O)N3CCCC3)cc2)o1)N1CCOCC1`, 739 s.
For `Cc1ccn2cc(-c3ccc(NC(=O)c4ccc(Br)o4)cc3)nc2n1`, the RP-LC retention time is 647 s.
As for `Cc1cc(-c2ccc(S(=O)(=O)N3CCC(C(=O)NCC4CC4)CC3)o2)n[nH]1`, the RP-LC retention time came out at 702 s.
With `COc1ccc(OCc2nc(CCN(C)C(=O)CC3CCCC3)no2)cc1` the figure was 919 s.
For `COc1cccc(CNC(=O)c2c(C)sc3ccn(Cc4ccc(F)cc4)c(=O)c23)c1`, the RP-LC retention time is 980 s.
Regarding `COCCN1C(=O)c2ccccc2C(C(=O)NCCCN2CCCCC2C)C1c1cccs1` (centres undefined), the RP-LC retention time was determined as 624 s.
`Cc1sc(-c2cc(C(F)(F)F)[nH]n2)cc1S(=O)(=O)N1CCN(c2ccc(Cl)cc2)CC1` displayed an RP-LC retention time of 1180 s.
In turn, `CC(C)n1c(CCNC(=O)CCc2ccccc2)nc2cccnc21` yielded an RP-LC retention time of 716 s.
In the case of `Cn1cc(S(=O)(=O)N2CCCC2)cc1C(=O)N1CCn2c1nc1ccccc12`, the RP-LC retention time is 652 s.
Compound `COc1ccc(OC)c(-c2cc(C(=O)N3CCN(Cc4ccsc4)CC3)n(C)n2)c1` returned an RP-LC retention time of 580 s.
`CCC(C)NC(=O)C1CCC(=O)N(c2cc(OC)c(OC)c(OC)c2)C1c1ccc(OC)cc1` (centres undefined): the RP-LC retention time stood at 693 s.
With `Cc1cccc(C2CCCN2C(=O)Cn2cc(Cl)cn2)c1` (centres undefined) the figure was 866 s; with `COc1cc([C@H]2Oc3cc([C@H]4Oc5cc(O)cc(O)c5C(=O)[C@@H]4O)ccc3O[C@@H]2CO)ccc1O`, 685 s; with `O=C(Nc1ccc2c(c1)OCCO2)C1CC(=O)N(CCc2c[nH]c3ccc(F)cc23)C1` (centres undefined), 764 s.
`COCCc1noc([C@@H]2CC(F)(F)CN2C(=O)c2ccco2)n1` had an RP-LC retention time of 716 s.
Consider `Cc1nc2nc(-c3ccc(C(C)(C)C)cc3)nn2c(C)c1CC(=O)Nc1ccc(Br)cc1`, for which the RP-LC retention time was determined as 1220 s.
Turning to `CCCn1c(=O)sc2cc(S(=O)(=O)N3CCC(C(=O)Nc4ccccn4)CC3)ccc21`, the RP-LC retention time came out at 780 s.
The value for `O=C(Nc1ccccc1Br)N1CCc2nc[nH]c2C1` was 566 s.
With `CCn1cnc(S(=O)(=O)N2CCCC(C(=O)Nc3ccccc3F)C2)c1` (centres undefined) the figure was 735 s; with `CC(C)n1c(=O)oc2cc(-c3noc(CCc4ccccc4)n3)ccc21`, 1140 s; with `COc1ccc(C2CC(=O)N(CC(=O)NCC3CCCO3)c3ccccc3S2)cc1` (centres undefined), 826 s.
In turn, `O=[N+]([O-])c1ccc(/C=C\c2ccncc2)cc1` displayed an RP-LC retention time of 685 s.
In the case of `CSc1ccccc1NC(=O)c1cn2c(n1)CCCC2`, the RP-LC retention time was 638 s.
`COc1ccc(-c2cn3c(CC(=O)N4CCCc5ccccc54)csc3n2)cc1OC` returned an RP-LC retention time of 775 s.
`COCCN1C(=O)[C@H]2CN(Cc3cccc(C(F)(F)F)c3)C[C@H]2C1=O` returned an RP-LC retention time of 694 s.
With `O=C1NC2(CCN(C(=O)Nc3ccccc3Cl)CC2)N=C1c1ccccc1`, the RP-LC retention time worked out at 800 s.
As for `CCCNC(=O)N1CCCC(c2nn(C)c(=O)n2CC)C1` (centres undefined), the RP-LC retention time was 602 s.
With `COc1cc(Cl)ccc1-c1nc(-c2ccc3c(c2)oc(=O)n3C(C)C)no1` the figure was 1220 s.
With `O=C(NCc1noc(C2CCCC2)n1)c1ccccc1` the figure was 796 s; with `O=C(NC1CCCN(c2ccc(=O)[nH]n2)C1)C1(S(=O)(=O)c2ccc(Cl)cc2)CC1` (centres undefined), 712 s; with `Cc1ccc(Cl)cc1NC(=O)Cc1c(C)nn(-c2nc(-c3ccccc3)cs2)c1C`, 1230 s.
For the compound `CCCc1cc(=O)n(CC(=O)Nc2ccc(C)cc2Cl)c(-c2ccc(Cl)cc2)n1`, the RP-LC retention time came to 1080 s.
The value for `COc1ccc(OC)c(CC2C(=O)Nc3c(C)cccc32)c1` (centres undefined) was 882 s; that for `CC1=C(C(=O)N(CC(=O)NCc2ccccc2)c2ccc(Cl)cc2)SCCO1` was 934 s.
On to `Cc1nc(Nc2ccccn2)sc1C(=O)N1CCc2ccccc2C1`, for which the RP-LC retention time amounted to 829 s.
`O=c1[nH]c2ccc(NCc3ccc(-c4ccccc4F)o3)cc2[nH]1`: the RP-LC retention time is 687 s.
Consider `CC1=CC2=C(C=O)C(=O)[C@](C)(O)[C@@H](O)C2=CO1`, for which the RP-LC retention time stood at 636 s.
In turn, `Cc1cccc(-c2nc(Cn3nnc(-c4nc(-c5ccc6c(c5)OCO6)no4)c3C)c(C)o2)c1` returned an RP-LC retention time of 1240 s.
Regarding `CCOc1ccc(C(=O)NC2CCN(c3cc(-c4ccc(Cl)cc4)[nH]n3)C2)cc1` (centres undefined), the RP-LC retention time was found to be 820 s.
For the compound `Cc1ccc2[nH]c(C(=O)NC3CC3)cc2c1`, the RP-LC retention time worked out at 782 s.
With `CCN1C(=O)c2cc(C(=O)Nc3ccc(Cl)cc3)nn2CC1(C)C(=O)NC1CCCC1` (centres undefined) the figure was 860 s; with `Cc1ccc(C2=NC3(CCN(C(=O)c4ccco4)CC3)ON2)cc1`, 747 s.
For `Cc1ccccc1NS(=O)(=O)c1cc2c(s1)CCN(C(=O)C1CC1)C2`, the RP-LC retention time came out at 822 s.
`CC(C)CN1C(=O)CCc2cc(NS(=O)(=O)c3cccc(Cl)c3)ccc21` gave an RP-LC retention time of 932 s.
With `COc1ccccc1CCNC(=O)CSc1ccc(-c2cccs2)nn1` the figure was 802 s.
Compound `CCOc1ccc(-c2cn3ccn(-c4ccc(F)c(Cl)c4)c(=O)c3n2)cc1` yielded an RP-LC retention time of 918 s.
The value for `O=C(NCCCn1cccn1)c1cn2ccccc2n1` was 570 s; that for `Cn1ccnc1SCC(=O)Nc1nc(-c2ccc(F)cc2)cs1` was 639 s; that for `CCN1CCN(c2c(C(=O)c3ccc(OC)cc3)cnc3cc4c(cc23)OCCO4)CC1` was 551 s.
In turn, `COCCn1ncc(N2CCC(C(=O)Nc3ccc(F)cc3F)C2)cc1=O` (centres undefined) gave an RP-LC retention time of 666 s.
`CC(C)c1nnc(-c2ccc(S(=O)(=O)NC3CCCCCC3)o2)o1` returned an RP-LC retention time of 985 s.
As for `COC(=O)c1ccccc1NC(=O)C1CN(C(=O)c2ccc(F)c(F)c2)C1`, the RP-LC retention time came out at 803 s.
The compound `Cc1ccc(-n2c(=O)c3c(cc(C)n3C)n(CC(=O)Nc3ccc(Cl)cc3)c2=O)cc1` came in with an RP-LC retention time of 910 s.
For the compound `O=C1COc2ccc(NC(=O)c3cc(C4CC4)n(C4CCS(=O)(=O)C4)n3)cc2N1` (centres undefined), the RP-LC retention time was 652 s.
